According to patent US20160158253A1, “TREATMENT OF PANCREATIC CANCER WITH A COMBINATION OF A HYPOXIA-ACTIVATED PRODRUG AND A TAXANE” (THRESHOLD PHARMACEUTICALS, INC., priority 2013, published 2016):
Marks after values point to notes of the source that are not given here.

Assays:
[1] = tested on: MIA PaCa-2 human PDAC xenograft; test: Antitumor activity in MIA PaCa-2 PDAC xenograft model; format: in vivo, nude mice
Procedure: (§1) Dosing for the animal studies described below were selected as follows. In some current human clinical trials, TH-302 is given on once-a-week schedules (QW) of three weeks on, one week off (at a dose of 240 or 340 mg/m^2). […] In xenograft models, gemcitabine is administered at 60 or 80 mg/kg in four three-day cycles (Q3D×4) (Teicher et al., Cancer Res. 6:1016, 2000; Marriman et at., invest New Drugs. 14:243, 1996). […] The therapy was administered every three days for five cycles (Q3D×5).
(§2) The animal studies were conducted using, xenograft models for pancreatic ductal adenocarcinoma (PDAC). Tumors were generated in the flanks of nude mice by subcutaneous injection of established human PDAC cell lines. Four PDAC xenograft models were established by subcutaneous implantation of either Hs766t, MIA PaCa-2, PANC-1 or BxPC-3 cells into the flank of nude mice. Mice were implanted subcutaneously in the right flank with 5×10^6 cells in 30% Matrilgel™ at a dose volume of 200 μL. Mice bearing similar tumor size were randomly assigned into different groups when tumor size reached 150 mm^3. […] Antitumor activity of the G+nP+T triplet combination therapy was assessed, and compared with the G+nP doublet combination therapy.
(§3) Tumor growth delay 1000 mm^3 (TGD1000) was determined as the difference in time required for the mean tumor size to reach 1000 mm^3 between treated group and vehicle control group. TGD1000 of T monotherapy and G+nP doublet combination therapy groups was 47 and 35 days, respectively, while TGD1000 of G+nP+T triplet combination therapy group was 53 days. […] (see Table 1, below).
(§4) In three of the four models, the triplet combination therapy increased the complete response rate (CR) relative to the G+nP combination therapy or the T monotherapy. CR was defined as disappearance of tumor or tumor size is <100 mm^3 at a study point. Of note, the CR rate of the G+nP+T combination therapy in the PANC-1 model reached 100%, compared to 0% and 60% in the T monotherapy and G+nP combination therapy groups, respectively. In the MIA PaCa-2 model, CR rate in the triplet group was 90%, compared to 0 and 10% in the T monotherapy and G+nP doublet combination therapy groups, respectively.

[2] = tested on: cell lines with mutations in BRCA1 or BRCA2; test: Sensitivity of BRCA1 or BRCA2 mutated cell lines to TH-302; format: cell-based
Description: A human clinical trial can include analysis of any of a series of biomarkers. […] The prevalence of BRCA1 and BRCA2 mutations in pancreatic cancer patients is between 5% and 19%, Thus, a trial can include collection of serum, plasma, and tissue samples for analysis of any markers useful for identifying suitable patient populations and/or liar monitoring the course of therapy.

[3] = tested on: pancreatic ductal adenocarcinoma (PDAC); conditions: TH-302 added to gemcitabine (GEM) versus GEM only; cited from earlier work
[4] = von Frey neuropathy assay (mechanical hyperalgesia); format: in vivo; conditions: male CD-1 mice; compared to V, from 9 days after initiation of treatment
Procedure: To determine the effect of combination therapy on the nervous system, male CD-1 mice were randomly divided into 4 groups with 10 mice each. Mechanical hyperalgesia tests were performed prior to the initial treatment and during the study by a trained observer who was unaware of the animal group identities. […] This hyperalgesia persisted to 37 days with peaks at day 16 and day 23 (p<0.001, two-way ANOVA), and gradually returned to baseline at day 43. […] There was no difference between G+nP+T combination therapy treated and G+nP combination therapy treated animals.

PANC-1 xenograft tumors = test: Pharmacodynamic biomarkers by histology, immunohistochemistry or in situ assay in PANC-1 tumors; format: in vivo, nude mice
Procedure: We used a panel of biomakers to characterize Hs766t, MIA PaCa-2, PANC-1 and BxPC3 xenograft tumors. […] We chose a moderate hypoxic level tumor model, PANC-1, to investigate the pharmacodynamic changes caused by the different treatments, PANC-1 tumor-bearing animals were treated with vehicle, TH-302, G+nP, and G+nP+T when tumor size was approximately 500 mm^3. One day after the last treatment, tumors were harvested, fixed, paraffin-embedded, and sectioned for staining with a panel of histology and immunohistochemistry markers.
Similar to as observed for apoptosis, γH2AX-positive cells were increased in all three drug treated groups compared with V. 31±1.3 positive cells/field in the G+nP+T triplet group, compared with 19 in T alone or G+nP and less than 4 in V (p<0.05). Cells with DNA damage were evenly distributed in both the hypoxic and oxic compartments in non-necrotic regions. Ki67 is a marker of cell proliferation, labeling all active phases of the cell cycle including S, G2, and mitosis.
To determine the effect of combination therapy on tumor microenvironment, tumor stroma and hypoxia were investigated. Tumor stroma is composed of extracellular matrix protein and cellular elements. Thus, collagen I and III, as main parts of extracellular matrix were evaluated by Picrosirius red staining. Activated fibroblasts in the stroma were analyzed by α-SMA. […] There was no co-localization between exogenous pimonidazole- and endogenous CAIX-positive cells, CA-IX was found in the necrotic cells as well.

[5] = tested on: PANC-1 human PDAC xenograft; test: Antitumor activity in PANC-1 PDAC xenograft model; format: in vivo, nude mice
Procedure: as §1, §2, §3, §4

[6] = Treatment-induced body weight loss in PDAC tumor bearing and CD-1 non-tumor bearing mice; format: in vivo
Procedure: Another series of studies were conducted to investigate the treatment-induced body weight (BW) loss in both PDAC tumor bearing animals and CD-1 immunocompetent mice. Body weight was measured daily or twice a week.

[7] = Clinical injection site and administration reactions of TH-302; format: in vivo, human
Description: Care in the administration of TH 302 will reduce the chance of perivenous infiltration. If any signs or symptoms of extravasation occur, the administration of TH 302 should be immediately terminated and restarted in another vein. TH 302 should always be administered via a freely flowing i.v. line, preferably, where feasible, through a central venous catheter. Administration through small veins, particularly on the hands and feet is discouraged. Because of the progressive nature of extravasation reactions, close observation and plastic surgery consultation is recommended.
TH 302 administration reactions have been observed. […] It is recommended that a steroid such as dexamethasone (or equivalent) be included in the antiemetic regimen prior to administration. Symptoms and signs of hypersensitivity include fever, myalgia, headache, rash, pruritus, urticaria, angioedema, chest discomfort, dyspnea, coughing, cyanosis, and hypotension. If the nature and the severity of the reaction require termination of treatment, it should be determined if the reaction may or may not be an immunoglobulin E mediated process. […] If the event is clearly anaphylaxis, then epinephrine ( 1/1000, 0.3 to 0.5 mL given subcutaneously or equivalent) should be considered as well as standard treatment approaches. […] Reactions to the administration of TH 302 should be assessed and treated in a similar manner. […]

[8] = tested on: Hs766t human PDAC xenograft; test: Antitumor activity in Hs766t PDAC xenograft model; format: in vivo, nude mice; conditions: for MT (Median Time to reaching the size of 1000 mm^3): Kaplan-Meier; for TGI (Tumor Growth Inhibition): T 50 mg/kg i.p., nP 30 mg/kg i.v., G 60 mg/kg i.p.
Procedure: as §1, §2, §3, §4

[9] = Hematological testing (Hemavet 950 blood analyzer); format: in vivo, PANC-1 tumor bearing nude mice and CD-1 mice; conditions: 24 hrs after last treatment; T and G+nP vs V, triplet vs G+nP
Procedure: To determine the effect of combination therapy on hematopoiesis, the same treatment was employed in PANC-1 tumor bearing nude mice as well as immunocompetent CD-1 mice. Twenty-four hrs. after the last treatment, the animals were euthanized under CO2, blood was collected via heart puncture, and hematological analysis was performed using a Hemavet 950™ blood analyzer. As shown in FIG. 2 (mean±SEM), G+nP combination therapy or T monotherapy reduced neutrophils, lymphocytes, and monocytes, and complete white blood cell count (WBC), compared with V(*p<0.05 compared with V).

[10] = tested on: BxPC-3 human PDAC xenograft; test: Antitumor activity in BxPC-3 PDAC xenograft model; format: in vivo, nude mice
Procedure: as §1, §2, §3, §4

pancreatic cancer = conditions: Phase 3 trial, pancreatic cancer patients; cited from earlier work
[11] = MIA PaCa-2, TV 1000 mm^3 as endpoint
[12] = PANC-1, TV 1000 mm^3 as endpoint

Cn1c(COP(=O)(NCCBr)NCCBr)cnc1[N+](=O)[O-] [TH-302, (2-bromoethyl)({[(2-bromoethyl)amino][(2-nitro-3-methylimidazol-4-yl)methoxy]phosphoryl})amine]
CR (Complete Response) of 10 ([1]; MIA PaCa-2): 0 of 10
TGD1000 (vs. vehicle) ([1]; MIA PaCa-2, Q3D×5): 6 days
TGI (Tumor Growth Inhibition) ([1]; MIA PaCa-2, T 50 mg/kg i.p., nP 30 mg/kg i.v., G 60 mg/kg i.p., Q3D×5): 27%
ILS (Increased Life Span) [1, 11]: 26%
MT (Median Time to reaching the size of 1000 mm^3) [1, 11]: 34 days
CR rate ([1]; MIA PaCa-2 model): 0%
sensitivity to TH-302 [2]: Enhanced sensitivity
progression-free survival [3]: significant increase
hind-paw mechanical hyperalgesia [4]: no mechanical hyperalgesia
γH2AX-positive cells (DNA damage) (PANC-1 xenograft tumors; V less than 4): 19 positive cells/field
extracellular collagen (Picrosirius red staining) (PANC-1 xenograft tumors; morphometric analysis): no effect
α-SMA expression (activated fibroblasts in stroma) (PANC-1 xenograft tumors; morphometric analysis): no effect
number of apoptotic cells (TUNEL assay) (PANC-1 xenograft tumors; non-necrotic regions, V 0.8±0.1): 3±0.2 per field
tumor necrotic fraction (Masson's Trichrome histology staining) (PANC-1 xenograft tumors; one day after last treatment, V 9%): 35%
hypoxic fraction (HF) (PANC-1 xenograft tumors; pimonidazole, V 12.4+2%): 10.6±1.1%
CR (Complete Response) of 10 ([5]; PANC-1): 0 of 10
TGD1000 (vs. vehicle) ([5]; PANC-1, Q3D×5): 7 days
TGI (Tumor Growth Inhibition) ([5]; PANC-1, T 50 mg/kg i.p., nP 30 mg/kg i.v., G 60 mg/kg i.p., Q3D×5): 44.5%
ILS (Increased Life Span) [5, 12]: 48%
MT (Median Time to reaching the size of 1000 mm^3) [5, 12]: 31 days
CR rate ([5]; PANC-1 model): 0%
maximal body weight loss ([6]; BxPC3, Nude ♀ (n = 10)): 0%
maximal body weight loss ([6]; Hs766t, Nude ♀ (n = 10)): 0%
maximal body weight loss ([6]; MIA PaCa-2, Nude ♀ (n = 10)): 0%
maximal body weight loss ([6]; Non-tumor CD-1 ♀ (n = 6)): 0%
maximal body weight loss ([6]; Non-tumor CD-1 ♂ (n = 10)): 0%
maximal body weight loss ([6]; PANC-1 #1, Nude ♀ (n = 10)): 0%
maximal body weight loss ([6]; PANC-1 #2, Nude ♀ (n = 5)): 0%
maximal body weight loss ([6]; PANC-1 #3, Nude ♀ (n = 10)): 0%
maximal BW loss (percentage of mean maximal BW loss compared with pretreatment) ([6]; across the 8 studies, G+nP range in 7 of 8 studies): 0%
injection site reactions reported ([7]; i.v. administration): Supravenous erythema and hyperpigmentation
administration reactions observed ([7]; responded to steroid and antihistamine treatment): lip swelling and urticaria
MT (Median Time to reaching the size of 1000 mm^3) ([8]; TV 1000 mm^3 as endpoint): 59.5*^,a day
MT (Median Time to reaching the size of 1000 mm^3) ([8]; TV 1000 mm^3 as endpoint, listed as T): 59.5 days
TGD1000 (vs. vehicle) ([8]; Q3D×5, delay of mean tumor size to 1000 mm^3): 47 days
TGI (Tumor Growth Inhibition) ([8]; Q3D×5): 82.1%*
TGI (Tumor Growth Inhibition) ([8]; Q3D×5, listed as T): 82.1%
ILS (Increased Life Span) ([8]; TV 1000 mm^3 as endpoint): 297%
CR (Complete Response) of 10 ([8]; tumor gone or <100 mm^3): 0 of 10
neutrophils, lymphocytes, monocytes and complete white blood cell count (WBC) [9]: reduced
CR (Complete Response) of 10 [10]: 0 of 10
TGD1000 (vs. vehicle) ([10]; Q3D×5): 11 days
TGI (Tumor Growth Inhibition) ([10]; T 50 mg/kg i.p., nP 30 mg/kg i.v., G 60 mg/kg i.p., Q3D×5): 43%
ILS (Increased Life Span) ([10]; TV 1000 mm^3 as endpoint): 52%
MT (Median Time to reaching the size of 1000 mm^3) ([10]; TV 1000 mm^3 as endpoint): 24 days

Nc1ccn([C@@H]2O[C@H](CO)[C@@H](O)C2(F)F)c(=O)n1 [gemcitabine]
median overall survival (pancreatic cancer): 6.6 months
